Test results published in US4946855A, “Carboxamide derivatives having tetrazole and thiazole rings and their use” (Sawai Pharmaceutical Co., Ltd., priority 1987, dated 1990).

system: 48-Hours PCA (passive cutaneous anaphylaxis); test: Test Example 2: Anti-passive cutaneous anaphylaxis (PCA) activity in rats, 48-Hours PCA (Ib compounds); assay type: in vivo, rat (Wistar strain male); settings: Rattus norvegicus, po, 20 mg/kg, P.O., 1 hour before the elicitation
Method: (§1) Anti-passive cutaneous anaphylaxis (PCA) activity in rats (Materials and Method)
(§2) Wistar strain male rats (6 weeks old) were purchased from Shizuoka Experimental Animal Agricultural Cooperative (Japan), habituated to a breeding environment for 1 week before using for the experiment.
(§3) (2) Preparation of antiserum
(§4) Preparation of antiserum was carried out according to the method described in J. Immunol. 106, 1002-1011 (1971).
(§5) Thus, Ascaris suum extract was dinitrophenylated (DNP-As) and infused subcutaneously together with dead Bordetella pertussis at four sites on the foot-pad of the Wistar strain male rats. After 5 days, the rats were boostered with DNP-As (1 mg) at the dorsal muscle for additional sensitization. After 3 days, blood samples were collected and serum was separated which was used as anti DNP-As antiserum. The titer of the antiserum was measured by rats 48-hours PCA and found to be 1:200.
(§6) Rats were sensitized with 35 times dilution of anti DNA-As antiserum administered at two sites in the pre-clipped right dorsal skin. After 48 hours, DNP-As (500 μg in 0.5% Evans blue-physiological saline (1 ml) was administered into caudal vein to elicit the reaction. Then, 30 minutes later, the animals were decapitated, the dorsal skin was peeled, two sensitized areas as well as one control area were cut off and analyzed for Evans blue exudation which was used as an indivative of the reaction according to the method disclosed in Microbiol. Immunol. 22, 89-101 (1978). Thus, cut skins were treated with 1N-KOH (1 ml) and incubated at 37° C. for 16 hours to dissolve the skin tissue. A mixed solution (9 ml) of 0.6N-phosphoric acid-acetone (5: 13) was added and the mixture was centrifuged (300 r.p.m.) for 15 minutes. The supernatant was assayed for absorption at 620 nm and the exudation of Evans blue was determined. Test compounds (I) of the present invention were administered perorally as a suspension in 0.5% tragacanth 1 hour before the elicitation.

Row | Compound | inhibition in vivo at 20 mg/kg
1 | O=C(Nc1nc(-c2ccccc2)cs1)c1nnn[nH]1 [Ib-1, N-(4-phenyl-2-thiazolyl)-1H-tetrazole-5-carboxamide] | 66%
2 | COc1ccc(-c2csc(NC(=O)c3nnn[nH]3)n2)cc1 [Ib-4] | 92%
3 | Cc1ccc(-c2csc(NC(=O)c3nnn[nH]3)n2)cc1 [Ib-5, N-(4-(4-Methylphenyl)-2-thiazolyl)-1H-tetrazole-5-carboxamide] | 89%
4 | O=C(Nc1nc(-c2ccc(Cl)cc2)cs1)c1nnn[nH]1 [Ib-7, N-(4-(4-chlorophenyl)-2-thiazolyl)-1H-tetrazole-5-carboxamide] | 70%
5 | Cc1sc(NC(=O)c2nnn[nH]2)nc1-c1ccccc1 [Ib-12, N-(5-methyl-4-phenyl-2-thiazolyl)-1H-tetrazole-5-carboxamide] | 51%

same assay, conditions: Rattus norvegicus, po, 30 mg/kg, P.O., 1 hour before the elicitation

Row | Compound | inhibition in vivo at 30 mg/kg
6 | Cc1ccc(-c2csc(C(=O)Nc3nnn[nH]3)n2)cc1 [Ib-13, 4-(4-Methylphenyl)-N-(1H-tetrazole-5-yl)-2-thiazolecarboxamide] | 60%
7 | COc1ccc(-c2csc(C(=O)Nc3nnn[nH]3)n2)cc1 [Ib-14, 4-(4-methoxyphenyl)-N (1H-tetrazole-5-yl)-2-thiazolecarboxamide] | 50%

same assay, conditions: Rattus norvegicus, po, 50 mg/kg, P.O., 1 hour before the elicitation

Row | Compound | inhibition in vivo at 50 mg/kg
8 | COc1ccc(/C=C/C(=O)Nc2ccccc2C(=O)O)cc1OC [Tranilast, reference compound] | 0%

system: 48-Hours PCA (passive cutaneous anaphylaxis); test: Test Example 3: Anti-passive cutaneous anaphylaxis (PCA) activity in rats, 48-Hours PCA (Ic compounds); assay type: in vivo, rat (Wistar strain male); settings: 30 mg/kg, P.O., 1 hour before the elicitation
Method: as §1, §2, §3, §4, §5
as §6, with “with” for “with 1N-KOH”, “mil)” for “ml) and”, “0.6 N-phosphoric” for “0.6N-phosphoric”

Row | Compound | Inhibition (%)
9 | COc1ccc(-c2nc(C)c(C(=O)Nc3nnn[nH]3)s2)cc1 [Ic-6, 2-(4-Methoxyphenyl)-4-methyl-N-(1H-tetrazole-5-yl)-5-thiazolecarboxamide] | 56%
10 | COc1ccc(-c2nc(C)c(NC(=O)c3nnn[nH]3)s2)cc1 [Ic-14, N-(2-(4-Methoxyphenyl)-4-methyl-5-thiazolyl)-1H-tetrazole-5-carboxamide] | 50%
11 | Cc1ccc(-c2nc(C)c(C(=O)Nc3nnn[nH]3)s2)cc1 [Ic-5, 4-methyl-2-(4-methylphenyl)-N-(1H-tetrazole-5-yl)-5-thiazolecarboxamide] | 49%
12 | Cc1ccc(-c2nc(C)c(NC(=O)c3nnn[nH]3)s2)cc1 [Ic-13, N-(4-methyl-2-(4-methylphenyl)-5-thiazolyl)-1H-tetrazole-5-carboxamide] | 52%

same assay, conditions: 50 mg/kg, P.O., 1 hour before the elicitation

Row | Compound | Inhibition (%)
13 | COc1ccc(/C=C/C(=O)Nc2ccccc2C(=O)O)cc1OC [Tranilast, reference compound] | 0%

system: 48-Hours PCA (passive cutaneous anaphylaxis); test: Test Example 1: Anti-passive cutaneous anaphylaxis (PCA) activity in rats, 48-Hours PCA (Ia compounds); assay type: in vivo, rat (Wistar strain male); settings: Rattus norvegicus, po, 15 mg/kg, perorally, 1 hour before the elicitation
Method: as §1, §2, §3, §4, §5
as §6, with “μg in 0.5 % Evans blue-physiological” for “μg in 0.5% Evans blue-physiological”

Row | Compound | inhibition in vivo at 15 mg/kg
14 | CC(C)c1ccc(-c2nc(NC(=O)c3nnn[nH]3)cs2)cc1 [Ia-16, N-(2-(4-(1-methylethyl)phenyl)-4-thiazolyl) 1H-tetrazole-5-carboxamide] | 46%
15 | COc1ccc(-c2nc(NC(=O)c3nnn[nH]3)cs2)cc1 [Ia-8] | 80%
16 | Cc1ccccc1-c1nc(NC(=O)c2nnn[nH]2)cs1 [Ia-3, N-(2-(2-methylphenyl)-4-thiazolyl)-1H-tetrazole-5-carboxamide] | 78%
17 | Cc1cccc(-c2nc(NC(=O)c3nnn[nH]3)cs2)c1 [Ia-4, N-(2-(3-methylphenyl)-4-thiazolyl)-1H-tetrazole-5-carboxamide] | 39%
18 | O=C(Nc1csc(-c2ccc3ccccc3n2)n1)c1nnn[nH]1 [Ia-26, N-(2-(2-quinolyl)-4-thiazolyl)-1H-tetrazole-5-carboxamide] | 42%
19 | O=C(Nc1csc(-c2cccs2)n1)c1nnn[nH]1 [Ia-25, N-(2-(2-thienyl)-4-thiazolyl)-1H-tetrazole-5-carboxamide] | 43%
20 | O=C(Nc1csc(-c2ccc(Cl)cc2)n1)c1nnn[nH]1 [Ia-15, N-(2-(4-chlorophenyl)-4-thiazolyl)-1H-tetrazole-5-carboxamide] | 50%
21 | CC(C)(C)c1ccc(-c2nc(NC(=O)c3nnn[nH]3)cs2)cc1 [Ia-17, N-(2-(4-(1,1-dimethylethyl)phenyl)-4-thiazolyl)-1H-tetrazole-5-carboxamide] | 47%
22 | O=C(Nc1csc(-c2cccnc2)n1)c1nnn[nH]1 [Ia-23, N-(2-(3-Pyridyl)-4-thiazolyl)-1H-tetrazole-5-carboxamide] | 40%
23 | Cc1nc(NC(=O)c2nnn[nH]2)cs1 [Ia-1, N-(2-Methyl-4-thiazolyl)-1H-tetrazole-5-carboxamide] | 60%

same assay, conditions: Rattus norvegicus, po, 25 mg/kg, perorally, 1 hour before the elicitation

Row | Compound | inhibition in vivo at 25 mg/kg
24 | Cc1ccc(-c2nc(NC(=O)c3nnn[nH]3)cs2)cc1 [Ia-5] | 90%
25 | Cc1ccc(-c2nc(NC(=O)c3nnn[nH]3)c(C)s2)cc1 [Ia-19, N-(2-(4-methylphenyl)-5-methyl-4-thiazolyl)-1H-tetrazole-5-carboxamide] | 61%

same assay, conditions: Rattus norvegicus, po, 50 mg/kg, 1 hour before the elicitation

Row | Compound | inhibition in vivo at 50 mg/kg
26 | COc1ccc(/C=C/C(=O)Nc2ccccc2C(=O)O)cc1OC [Tranilast, reference compound] | 0%
